Experimental data: patent US8506950B2, “Degradable microcapsules” (ETH Zurich, priority 2008, dated 2013)

Tested on: PhCMV*-1 and PETR driven SecCell expression
Test: Transient expression of SecCell under antibiotic-responsive promoters in mammalian cells
Format: cell-based, human, hamster
Conditions: HEK293-T, HeLa, HT-1080, CHO-K1, BHK-21, transient transfection
Source text: (B) Transient expression of cellulase in HEK293-T, HeLa, HT-1080, BHK-21 and CHO-K1 cells. Cellulase was either driven by a constitutive (PhCMV) or antibiotic-responsive promoters (PhCMV*-1 and PETR).
The Bacillus subtilis endo (1-4)-beta-glucanase was PCR-amplified from genomic DNA and fused to a strong mammalian secretion signal sequence derived from the murine Igk-chain V-12-C region. The secreted cellulase (SecCell) was cloned downstream of a constitutive promoter (PhCMV) as well as two different inducible promoters which enabled doxycycline-(PhCMV*-1) and erythromycin-(PETR) adjustable transgene expression (FIG. 1A).
Cellulase was quantified using EnzCheck® fluorescent substrate (Molecular Probes, Eugene, Oreg., USA) according to the manufacturer's protocol: 20 μl of cell culture supernatant was centrifuged at 16,000×g for one minute to remove cell debris and 15 μl of appropriate dilutions in PBS (Invitrogen, cat. no. 21600-069) were transferred to a 384-well plate containing 15 μl sodium acetate buffer (200 mM sodium acetate, pH 5.5) per well supplemented with 3 μl substrate solution. Plates were incubated at 37° C. for 30 minutes and fluorescence intensity was measured subsequently at 340 nm (excitation wavelength) and 450 nm (emission wavelength) in a Genios Pro multiwell plate reader (Tecan A G, Maennedorf, Switzerland). […]

## CC[C@H]1OC(=O)[C@H](C)[C@@H](O[C@H]2C[C@@](C)(OC)[C@@H](O)[C@H](C)O2)[C@H](C)[C@@H](O[C@@H]2O[C@H](C)C[C@H](N(C)C)[C@H]2O)[C@](C)(O)C[C@@H](C)C(=O)[C@H](C)[C@@H](O)[C@]1(C)O [EM, erythromycin]
  SecCell production (cellulase activity in the culture supernatants): repressed
